2 compounds from PubChem BioAssay (NCI) can be followed below.

Molecules are shown by their SMILES.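 These data come from cells grown in 96-well plates and exposed to compound for 48 hours at five concentrations. TGI: concentration producing complete growth inhibition.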

In the assay the test system is P388 leukemia. Briefly: NCI tumour cell line growth inhibition, 48 h.

In the case of `Nc1nc(=S)c2[nH]cnc2[nH]1`, the TGI is 6.43 µM.
Then `O=NN(CCCl)C(=O)NC1CCCCC1`, with 34.4 µM.
